Holding throughout (assay type): biochemical
One assay has as its system DNA Sequence S2. Nature of the assay: Sequence analysis by stepwise chemical reaction (pyrogram), PPDK system, Condition 4. The settings on record: DNA Sequence S2 (3 consecutive nucleotides). How it is done: Therefore, a sequence having 3 consecutive nucleotides of T was analyzed for comparison. Analyzed DNA Sequence S2 and a primer P3 are described below.
Of note is that Sequence P3 represents a primer sequence. This primer can complementarily bind to the underlined portion of the above DNA Sequence S2. FIGS. 16 to 20 show the results of a sequence analysis. In addition, the reagent conditions were listed together in the following Table 3.
In this experiment, an enzyme system which converts PPi into ATP has employed an enzyme system in which PPi and AMP are converted into ATP by PPDK as described in the conventional technique (Patent Literature 4). The items of the figure are identical to those of FIG. 15. At the bottom of the respective figures, the injected nucleotide types are designated. At the top, the nucleotide types which have been incorporated into a complementary DNA sequence of analysis object are designated. The substrate was injected in the order of “bases A, T, C, and G”, and 7 cycles were analyzed. As indicated in the target sequence, in this analysis, two regions (Cycle 4 and Cycle 7) having 3 consecutive nucleotides of A incorporated are present. Because of this, a difference in the ability of continuous incorporation of a nucleic acid substrate that is used as a nucleotide A can be assessed. Hereinafter, the details are described.
First, three kinds of the substrates (A3d, dATPαS, and C^7dATP) having the final concentration of 2 μM were used. The results of a sequence analysis will be described (FIGS. 16 to 20). […] At the time of dispensing A (surrounded by the circle ◯) which represented the injected nucleotide type, A3d was used. […] Accordingly, as the signal corresponding to A at the first cycle indicated, background luminescence was observed. Due to this phenomenon, the luminescence signal corresponding to nucleotide A constantly included the increased background luminescence. The symbol • in the figure denotes elongation luminescence corresponding to a nucleotide sequence of a sample. In contrast, the major luminescence without corresponding to the nucleotide sequence is represented by the symbol ∇. […] At the time of dispensing A (surrounded by the circle ◯) which represented the injected nucleotide type, dATPαS was used. The resulting pyrogram and the nucleotide sequence of a sample were compared. The symbol • in the figure denotes elongation luminescence corresponding to a nucleotide sequence of a sample. In contrast, the major luminescence without corresponding to the nucleotide sequence is represented by the symbol ∇. […] At the time of dispensing A (surrounded by the circle ◯) which represented the injected nucleotide type, C^7dATP was used. […] Accordingly, as the signal corresponding to A at the first cycle indicated, big background luminescence was observed. Due to this phenomenon, the luminescence signal corresponding to nucleotide A constantly included the increased background luminescence. The symbol x in the figure denotes just a background luminescence signal. The symbol • denotes elongation luminescence corresponding to a nucleotide sequence of a sample. However, the symbol (•) denotes inclusion of both elongation-derived luminescence and background luminescence. In contrast, the major luminescence without corresponding to the nucleotide sequence is represented by the symbol ∇.

Assay [1] relates to nucleotides G, C, and A (Sequence GA, Sequence CG, Sequence AG). Nature of the assay: Exclusivity of the other nucleotides (G, C, and A), elongation luminescence. The note with it: CG, AG, luminescence normalized to dCTP, dGTP, dTTP as 1. How it is done:
(§1) Incorporation into nucleic acid was evaluated as follows. First, one of the above sequences was used as a target. Next, the primer was made to complementarily bind to the target. Then, an elongation experiment was carried out using the respective nucleic acid substrates for that sample. The synthesized nucleic acid substrate requires an affinity (complementary characteristics) with nucleotide T, and exclusivity of the other nucleotides (G, C, and A). The affinity with nucleotide T was evaluated using the Sequence TG and the primer. The exclusivity of the other nucleotides (G, C, and A) was evaluated using the respective Sequence GA, Sequence CG, and Sequence AG, and the primer. In addition, Sequence 5T was used for the evaluation of an ability of continuous incorporation into nucleotide T.
(§2) A sequencing method using a stepwise chemical reaction is described below. First, 35 μL of ultrapure water, 5 μL of oligo DNA (10 μM) of analysis object (target), and 5 μL of a primer (20 μM) were mixed with 5 μL of a hybridization buffer (10 mM Tris-Acetate, 20 mM Mg-Acetate, pH 7.75) (a sample solution: the final volume was 50 μL). Then, the sample solution was heated at 94° C. for 20 seconds, and reacted at a Tm temperature of the primer for 2 minutes. After that, 0.5 μL, (target: […], primer: […]) of this sample solution, 20 of a luminescence reagent which is designated in Condition 2 of Table 1, and 0.2 μL of a polymerase enzyme (the final concentration: 0.05 U/4) were mixed to prepare a reaction reagent (the final volume was 20.7 μL). To this reaction reagent was added 0.4 μL of 100 μM nucleic acid substrate (the final concentration 2 μM). When nucleic acid elongation occurs, bioluminescence derived from pyrophosphate of the elongation reaction product can be observed. The reaction has a luminescence peak a few seconds after the reaction initiation. […] This luminescence peak value is virtually proportional to the amount of generated pyrophosphate. Measurement of the peak value enables a degree of nucleic acid elongation to be estimated.
Next, with regard to the respective synthetic substrates, the exclusivity of the other nucleotides (G, C, and A) was assessed using each of Sequence GA, Sequence CG, and Sequence AG and the primer. […] In addition, a background luminescence component of the respective substrates was compensated by taking its difference into account in a manner similar to that of the preceding figures.

The test system of assay [2] is 5 consecutive nucleotides of T (Sequence 5T). Nature of the assay: Ability of incorporation into consecutive nucleotides of T (Sequence 5T), three consecutive injections. The settings on record: for Continuous incorporation into 5 consecutive T (luminescence derived from incomplete elongation): three injections. On the procedure:
as §1, §2
Next, by using Sequence 5T, the ability of incorporation of the respective synthetic substrates into consecutive nucleotides of T was evaluated by the following procedure. The reaction reagent was prepared by using Sequence 5T as a target oligo in the same manner as in the case of evaluation of elongation of one nucleotide as described before. In this case, a target oligo 111 and a primer 112 form a complementary strand binding as depicted in FIG. 11(1). Due to the above, when dATP is dispensed into this reaction reagent as a substrate, five molecules of the substrate are consecutively elongated per target molecule as a primer having the substrate at the 3′ end 113, thereby releasing five molecules of pyrophosphate. If the elongation for all the five nucleotides is not completed, a portion of the nucleotide T remains in a single-stranded state. Because of this, when substrate dATP is dispensed again, the portion is elongated only in the case where a portion of incomplete elongation remains. Therefore, the release of pyrophosphate can be detected as luminescence. […] In addition, substrate dCTP, which is complementary to nucleotide G 114, was subsequently dispensed twice to detect luminescence. […]

[3] abbreviates: final concentration 2 μM, 7 cycles.

`Nc1ncnc2c1c(/C=C/C(=O)NCCc1ccncc1)cn2[C@H]1CC(O)[C@@H](COP(=O)(O)OP(=O)(O)OP(=O)(O)O)O1` (some centres unmarked) [A3d]: the “Sequence analysis result as substitute for dATP” value in the assay on DNA Sequence S2 (setting [3]) is reported as “up to the nucleotide G at Cycle 7, a sequence analysis was found to be able to be definitely carried out”. In addition, in assay [1], the “Exclusivity of the other nucleotides (G, C, and A)” value is reported as “excellent exclusivity”.
`Nc1ncnc2c1ncn2[C@H]1C[C@H](O)[C@@H](COP(O)(=S)OP(=O)(O)OP(=O)(O)O)O1` (some centres unmarked) [dATPαS]: the “Sequence analysis result as substitute for dATP” value was “incomplete elongation was able to be presumed to occur” in the assay with DNA Sequence S2 (setting [3]) and “the incomplete elongation is not completely resolved” in the assay with DNA Sequence S2 (final concentration 4 μM). For the same compound, the “Rate of Incomplete Elongation after the First Injection (%)” value in assay [2] (5 consecutive nucleotides, final concentration 4 μM, E1 = luminescence of 2nd and 3rd injections / total of 1st to 3rd) is on record as 36.8 ± 7.8%. For the same compound, in assay [2] (5 consecutive nucleotides, final concentration 4 μM, E2 = luminescence of 3rd injection / total of 1st to 3rd), the “Rate of Incomplete Elongation after the Second Injection (%)” value stood at 13.6 ± 5.1%. In addition, the “Continuous incorporation into 5 consecutive T (luminescence derived from incomplete elongation)” value in assay [2] (final concentration 2 μM, then dCTP) was “luminescence derived from incomplete elongation was detected even at the third injection”; in assay [2] (final concentration 4 μM (substrate amount doubled)), “luminescence derived from incomplete elongation was detected at the third injection”.

Source of the values: patent US8853373B2, “Method and reagent for gene sequence analysis” (Hitachi, Ltd., priority 2009, dated 2014).
